In assay [1] the test system is Karpas 299 lymphoma cell line positive for the oncogenic fusion protein NPM-ALK. The experiment in a line: Tritiated thymidine uptake cell proliferation assay, Karpas 299. It is filed as cell-based. The settings on record: Homo sapiens.
Another assay has as its target T1, BaF3 NPM-ALK WT (Homo sapiens, UniProt Q9UM73).
T1 construct: fused on or other part: P06748 (Nucleophosmin)
The experiment in a line: Tritiated thymidine uptake cell proliferation assay, BaF3 NPM-ALK WT. It is filed as cell-based, murine. The settings on record: cell line BaF3 NPM-ALK WT; read-out: IC50 of cellular proliferation, BaF3 NPM-ALK WT. Here is the method: (§1) Method: Tritiated Thymidine Uptake Cell Proliferation Assay
(§2) The following procedure was used with parent untransformed BaF3 cells, BaF3 cells transformed with the oncogenic fusion protein NPM/ALK, NPM/ALK positive SUDHL-1 cells, NPM/ALK positive SUPM2, ALK-negative HL60 cells, NPM/ALK positive KARPAS-299 cells. The parent untransformed BaF3 cells or Alk-negative HL60 cells are used as controls. Cells were seeded in U-bottomed 96-well plates at 10000 cells/well in a volume of 100 μl in supplemented medium. In the case of the parent untransformed BaF3 cells, the medium was supplemented with IL-3. Serial dilutions of inhibitors were added to the appropriate wells and volumes adjusted to 200 μl. Controls were treated with the equivalent volume of vehicle, DMSO, alone. Plates were incubated at 37° C. for 72 h. 3[H]-thymidine (1 μCi/well) was added for the last 16 h of incubation. Cells were harvested on to paper filters and 3[H]-thymidine incorporation was measured using a scintillation counter (1430 MicroBeta, Wallac, Turku, Finland). The 50% inhibitory concentration (IC50) was defined as the concentration of inhibitor, expressed in nanomolar units, that gave a 50% decrease in 3[H]-thymidine uptake compared with controls.
(§3) In Table 4 are reported the IC50 of cellular proliferation assays of example 3 versus ALK positive, mutated and negative cell lines.

Another assay concerns NPM/ALK positive SUPM2. The experiment in a line: Tritiated thymidine uptake cell proliferation assay, SUPM2. It is filed as cell-based. The settings on record: SUP-M2; cell line SUPM2; read-out: IC50 of cellular proliferation, SUPM2. The procedure: as §1, §2, §3
Another assay has as its target T2, ALKL1196M (GST-His-tag) (Homo sapiens, UniProt Q9UM73, L1196M).
T2 construct: either as full-length or enzymatically active fragments; purchased ProQinase GmbH (Freiburg, Germany)
The experiment in a line: Radiometric protein kinase assay (33PanQuinase Activity Assay), ALK L1196M. It is filed as biochemical. As to conditions: ATP 0.3 μM. Here is the method:
(§4) A proprietary radiometric protein kinase assay (33PanQuinase® Activity Assay) developed by ProQuinase GmbH (Freiburg, Germany) was used for measuring the kinase activity of selected protein kinases. All assays were performed in FlashPlates™ wells 96 Perkin Elmer (Boston, Mass., USA) in a reaction volume of 50 μl. The reaction mixture was obtained in 4 steps in the following order: • 1. 10 μl of a solution of non-radioactive ATP in water; • 2. 25 μl of assay buffer/[γ-^33P]-ATP mixture • 3. 5 μl of test sample in 10% DMSO • 4. 10 μl of enzyme/substrate mixture
(§5) All protein kinases provided by ProQinase were expressed in Sf9 insect cells or in E. coli as recombinant GST-fusion proteins or His-tagged proteins, either as full-length or enzymatically active fragments. […] Kinases from external vendors (CAR=Carna Biosciences Inc.; INV=Life Technologies (Invitrogen Corporation); MIL=Merck-Millipore (Millipore Corporation), were expressed, purified and quality-controlled by virtue of the vendors readings.
(§6) A stock solution of compound of formula (I) was diluted to 5×10-04M/100% DMSO. […] Incorporation of 33Pi (counting of “cpm”) was determined with a microplate scintillation counter (Microbeta, Wallac). […]
(§7) Based on each 10 corresponding residual activities, IC50 values were calculated using Prism 5.04 for Windows (Graphpad, San Diego, Calif.). […]

A further assay deals with T3, RET wild-type (Homo sapiens, UniProt P07949).
T3 construct: either as full-length or enzymatically active fragments; purchased ProQinase GmbH (Freiburg, Germany)
The assay is described as follows: Radiometric protein kinase assay (33PanQuinase Activity Assay), RET wild-type. It is filed as biochemical. As to conditions: ATP 1.0 μM. The procedure:
as §4, §5, §6, §7

The target in the next assay is T4, BaF3 NPM-ALK C1156Y (Homo sapiens, UniProt Q9UM73, C1156Y, cells depend on it).
T4 construct: fused on or other part: P06748 (Nucleophosmin)
The assay is described as follows: Tritiated thymidine uptake cell proliferation assay, BaF3 NPM-ALK C1156Y. It is filed as cell-based, murine. The settings on record: cell line BaF3 NPM-ALK C1156Y; read-out: IC50 of cellular proliferation, BaF3 NPM-ALK C1156Y. Here is the method:
as §1, §2, §3

Assay [2] addresses T5, ALK wild-type (GST-His-tag) (Homo sapiens, UniProt Q9UM73).
T5 construct: either as full-length or enzymatically active fragments; purchased ProQinase GmbH (Freiburg, Germany)
The assay is described as follows: Radiometric protein kinase assay (33PanQuinase Activity Assay), ALK wild-type. It is filed as biochemical. The settings on record: ATP 0.3 μM. Here is the method:
as §4, §5, §6, §7

Structures are written as SMILES.

T4 sequence (Q9UM73 whole entry C1156Y, the tested form may be a part): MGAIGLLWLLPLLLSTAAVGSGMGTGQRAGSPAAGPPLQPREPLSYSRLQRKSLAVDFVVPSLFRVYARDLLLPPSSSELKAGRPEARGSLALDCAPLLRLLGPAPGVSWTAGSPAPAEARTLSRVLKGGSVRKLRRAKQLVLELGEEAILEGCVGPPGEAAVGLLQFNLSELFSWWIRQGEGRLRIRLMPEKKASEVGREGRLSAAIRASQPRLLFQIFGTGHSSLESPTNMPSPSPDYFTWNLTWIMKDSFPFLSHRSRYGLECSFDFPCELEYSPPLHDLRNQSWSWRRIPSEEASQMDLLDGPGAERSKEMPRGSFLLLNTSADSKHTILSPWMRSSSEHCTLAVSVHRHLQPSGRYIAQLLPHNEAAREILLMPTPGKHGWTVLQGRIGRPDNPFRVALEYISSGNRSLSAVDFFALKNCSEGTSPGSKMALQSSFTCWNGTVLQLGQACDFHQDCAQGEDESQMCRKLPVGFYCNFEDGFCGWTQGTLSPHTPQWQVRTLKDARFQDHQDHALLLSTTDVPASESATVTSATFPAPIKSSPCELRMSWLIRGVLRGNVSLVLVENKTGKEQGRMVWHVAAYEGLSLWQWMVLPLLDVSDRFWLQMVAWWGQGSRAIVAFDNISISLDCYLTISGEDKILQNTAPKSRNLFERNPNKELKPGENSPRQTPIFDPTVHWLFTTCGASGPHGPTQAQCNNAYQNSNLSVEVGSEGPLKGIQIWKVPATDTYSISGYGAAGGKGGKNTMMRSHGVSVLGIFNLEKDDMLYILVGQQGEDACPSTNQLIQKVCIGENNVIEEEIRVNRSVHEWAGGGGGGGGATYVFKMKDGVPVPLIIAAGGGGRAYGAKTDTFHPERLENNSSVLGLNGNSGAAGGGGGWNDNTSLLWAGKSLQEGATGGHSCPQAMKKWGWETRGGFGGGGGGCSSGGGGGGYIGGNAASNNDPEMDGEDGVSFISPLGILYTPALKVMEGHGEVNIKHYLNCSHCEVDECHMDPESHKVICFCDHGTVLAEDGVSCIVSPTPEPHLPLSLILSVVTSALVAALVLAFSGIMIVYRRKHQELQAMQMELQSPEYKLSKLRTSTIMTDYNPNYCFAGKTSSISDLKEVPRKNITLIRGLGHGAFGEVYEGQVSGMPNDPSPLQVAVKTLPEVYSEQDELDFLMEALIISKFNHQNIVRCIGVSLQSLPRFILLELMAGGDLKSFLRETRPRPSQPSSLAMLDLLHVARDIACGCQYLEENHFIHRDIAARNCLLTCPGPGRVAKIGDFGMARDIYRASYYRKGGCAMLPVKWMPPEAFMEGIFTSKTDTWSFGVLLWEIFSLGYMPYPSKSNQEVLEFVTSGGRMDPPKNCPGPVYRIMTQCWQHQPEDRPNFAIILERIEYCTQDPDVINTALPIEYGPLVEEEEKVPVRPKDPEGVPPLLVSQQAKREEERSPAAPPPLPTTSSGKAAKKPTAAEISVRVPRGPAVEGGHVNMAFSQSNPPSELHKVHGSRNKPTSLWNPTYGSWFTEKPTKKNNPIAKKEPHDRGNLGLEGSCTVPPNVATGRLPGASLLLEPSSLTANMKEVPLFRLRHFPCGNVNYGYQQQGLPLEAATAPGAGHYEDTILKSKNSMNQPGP
T3 sequence (P07949 29-1114): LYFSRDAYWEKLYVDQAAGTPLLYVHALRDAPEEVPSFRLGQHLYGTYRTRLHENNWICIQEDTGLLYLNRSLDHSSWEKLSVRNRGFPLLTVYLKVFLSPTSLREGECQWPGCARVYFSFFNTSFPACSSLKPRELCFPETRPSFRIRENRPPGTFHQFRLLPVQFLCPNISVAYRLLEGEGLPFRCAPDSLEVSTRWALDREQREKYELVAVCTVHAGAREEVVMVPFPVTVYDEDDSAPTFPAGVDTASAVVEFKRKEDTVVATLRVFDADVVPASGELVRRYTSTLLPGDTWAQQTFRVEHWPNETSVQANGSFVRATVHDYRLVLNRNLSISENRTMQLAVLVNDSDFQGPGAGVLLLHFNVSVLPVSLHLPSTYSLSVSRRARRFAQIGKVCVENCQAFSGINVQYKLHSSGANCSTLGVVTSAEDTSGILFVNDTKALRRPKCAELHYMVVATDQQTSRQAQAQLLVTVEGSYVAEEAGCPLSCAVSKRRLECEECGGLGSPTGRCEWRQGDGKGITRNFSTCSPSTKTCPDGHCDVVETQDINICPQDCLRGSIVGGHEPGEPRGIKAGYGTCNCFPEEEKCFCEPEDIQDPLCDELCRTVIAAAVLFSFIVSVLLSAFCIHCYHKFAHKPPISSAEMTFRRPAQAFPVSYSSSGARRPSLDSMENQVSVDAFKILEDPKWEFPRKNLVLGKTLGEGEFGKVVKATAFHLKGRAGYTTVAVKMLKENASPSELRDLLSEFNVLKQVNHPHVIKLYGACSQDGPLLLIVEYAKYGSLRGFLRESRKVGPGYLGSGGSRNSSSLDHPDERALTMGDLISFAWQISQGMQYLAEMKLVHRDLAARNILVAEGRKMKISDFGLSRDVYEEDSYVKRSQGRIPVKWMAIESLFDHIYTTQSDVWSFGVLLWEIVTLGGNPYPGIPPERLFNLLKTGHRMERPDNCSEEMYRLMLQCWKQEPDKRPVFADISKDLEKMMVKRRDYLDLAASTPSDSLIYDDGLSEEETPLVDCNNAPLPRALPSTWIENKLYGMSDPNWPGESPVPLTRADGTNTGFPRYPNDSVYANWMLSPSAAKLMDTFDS
T2 sequence (Q9UM73 19-1620 L1196M): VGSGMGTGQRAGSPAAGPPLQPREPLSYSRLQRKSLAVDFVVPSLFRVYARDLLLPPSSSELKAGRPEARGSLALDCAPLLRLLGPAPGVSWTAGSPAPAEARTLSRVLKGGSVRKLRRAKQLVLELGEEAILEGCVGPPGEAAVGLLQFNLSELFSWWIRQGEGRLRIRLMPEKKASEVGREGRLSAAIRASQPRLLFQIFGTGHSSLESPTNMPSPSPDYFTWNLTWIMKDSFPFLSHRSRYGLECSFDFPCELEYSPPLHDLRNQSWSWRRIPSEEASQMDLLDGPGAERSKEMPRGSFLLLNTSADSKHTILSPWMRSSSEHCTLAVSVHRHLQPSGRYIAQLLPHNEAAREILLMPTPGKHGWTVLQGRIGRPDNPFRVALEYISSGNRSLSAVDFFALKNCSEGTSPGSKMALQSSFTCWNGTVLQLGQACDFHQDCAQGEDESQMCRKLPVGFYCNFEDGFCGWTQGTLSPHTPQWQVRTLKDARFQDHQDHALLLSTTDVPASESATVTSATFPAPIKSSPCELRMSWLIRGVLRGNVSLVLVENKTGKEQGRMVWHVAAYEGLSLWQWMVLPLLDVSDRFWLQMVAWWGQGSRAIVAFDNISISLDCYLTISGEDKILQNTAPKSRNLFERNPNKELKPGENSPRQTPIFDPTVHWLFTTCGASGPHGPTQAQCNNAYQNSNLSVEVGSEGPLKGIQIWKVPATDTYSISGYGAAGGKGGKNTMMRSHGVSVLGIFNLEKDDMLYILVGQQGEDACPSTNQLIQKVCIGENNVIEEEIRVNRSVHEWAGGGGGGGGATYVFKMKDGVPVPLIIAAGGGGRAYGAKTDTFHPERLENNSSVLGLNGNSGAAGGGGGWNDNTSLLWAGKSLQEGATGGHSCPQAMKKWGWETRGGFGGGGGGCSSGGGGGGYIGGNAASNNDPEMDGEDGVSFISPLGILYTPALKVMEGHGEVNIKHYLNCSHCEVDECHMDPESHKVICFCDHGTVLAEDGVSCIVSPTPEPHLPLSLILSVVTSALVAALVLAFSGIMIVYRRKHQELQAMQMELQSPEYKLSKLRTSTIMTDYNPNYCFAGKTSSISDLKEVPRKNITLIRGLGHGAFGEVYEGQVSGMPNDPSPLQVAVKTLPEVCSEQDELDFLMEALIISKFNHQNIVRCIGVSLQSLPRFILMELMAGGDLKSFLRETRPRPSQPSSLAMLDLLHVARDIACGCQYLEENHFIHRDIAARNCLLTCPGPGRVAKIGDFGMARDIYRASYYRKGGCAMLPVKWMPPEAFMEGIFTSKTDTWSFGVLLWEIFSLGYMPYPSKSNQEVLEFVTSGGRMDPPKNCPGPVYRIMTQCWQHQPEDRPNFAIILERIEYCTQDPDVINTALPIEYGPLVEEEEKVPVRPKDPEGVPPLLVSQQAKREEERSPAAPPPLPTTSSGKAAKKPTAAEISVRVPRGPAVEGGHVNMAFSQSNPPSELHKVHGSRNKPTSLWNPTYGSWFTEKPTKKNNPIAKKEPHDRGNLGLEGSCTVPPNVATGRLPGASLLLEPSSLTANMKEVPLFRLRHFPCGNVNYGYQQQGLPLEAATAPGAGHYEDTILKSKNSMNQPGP
T1 sequence (Q9UM73 whole entry, change not shown, the tested form may be a part): as the sequence (Q9UM73 whole entry C1156Y, the tested form may be a part) above, with Y1156C counted along it
T5 sequence (Q9UM73 19-1620): as the sequence (Q9UM73 19-1620 L1196M) above, with M1178L counted along it

Take `CN1CCN(c2ccc(C(=O)Nc3n[nH]c4cc(-c5ccc(O)cc5)c(Cc5cc(F)cc(F)c5)cc34)c(NC3CCOCC3)c2)CC1` [Example 3, N-[5-[(3,5-difluorophenyl)methyl]-6-(4-hydroxyphenyl)-1H-indazol-3-yl]-4-(4-methylpiperazin-1-yl)-2-(tetrahydropyran-4-ylamino)benzamide]: the inhibition at 0.2 µM in assay [1] (KARPAS-299, read-out: % Inhibition Karpas 299 cells) stood at 93%. The IC50 in assay [1] (KARPAS-299, read-out: IC50 of cellular proliferation, Karpas299) came out at 0.023 µM; in the assay on NPM/ALK positive SUPM2, 0.052 µM; against ALKL1196M (GST-His-tag), 0.045 µM; against RET wild-type, 0.12 µM; in assay [2] it was 0.029 µM. Besides, the values for the GI50 on BaF3 NPM-ALK WT and at BaF3 NPM-ALK C1156Y were 0.018 µM and 0.034 µM, respectively.

Broadly, the inhibition is how much of the control response was suppressed.

The values are drawn from patent US10336707B2, “Heterocyclic derivatives modulating activity of certain protein kinases” (EUDENDRON S.R.L., priority 2014, dated 2019).
